Among the data in ChEMBL document CHEMBL5584204, “Discovery of a novel tetrahydroimidazo[1,2-a]pyridine-5-carboxylic acid derivative as a potent and selective heparanase-1 inhibitor utilizing an improved synthetic approach” (Bioorg Med Chem Lett, 2024) are IC50 values, retold here.

A short description of test [1]: Inhibition of GBA (unknown origin). Set-up: species or system Homo sapiens.
A further test concerns the target T1, Beta-glucuronidase (Homo sapiens, UniProt P08236).
T1 sequence (P08236 whole entry): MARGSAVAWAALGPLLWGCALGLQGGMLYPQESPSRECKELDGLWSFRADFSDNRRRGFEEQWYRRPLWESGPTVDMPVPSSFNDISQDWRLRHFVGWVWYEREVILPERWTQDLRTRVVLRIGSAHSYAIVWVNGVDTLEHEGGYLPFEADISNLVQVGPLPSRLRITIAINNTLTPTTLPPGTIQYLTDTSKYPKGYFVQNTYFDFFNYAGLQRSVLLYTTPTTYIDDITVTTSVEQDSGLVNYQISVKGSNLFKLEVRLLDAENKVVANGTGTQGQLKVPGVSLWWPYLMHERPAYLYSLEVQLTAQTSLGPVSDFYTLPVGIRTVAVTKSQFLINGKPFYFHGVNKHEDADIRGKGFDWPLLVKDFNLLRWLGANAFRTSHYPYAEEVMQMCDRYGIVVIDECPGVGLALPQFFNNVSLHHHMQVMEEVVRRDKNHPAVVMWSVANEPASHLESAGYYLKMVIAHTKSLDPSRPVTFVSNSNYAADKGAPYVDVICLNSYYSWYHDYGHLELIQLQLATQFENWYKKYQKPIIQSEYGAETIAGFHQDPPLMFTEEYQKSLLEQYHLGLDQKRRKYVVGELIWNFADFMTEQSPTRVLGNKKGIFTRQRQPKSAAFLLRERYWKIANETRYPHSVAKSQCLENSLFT
In words: Inhibition of GUSbeta (unknown origin).

The target in the next test is T2, Heparanase (Homo sapiens, UniProt Q9Y251).
T2 sequence (Q9Y251 whole entry): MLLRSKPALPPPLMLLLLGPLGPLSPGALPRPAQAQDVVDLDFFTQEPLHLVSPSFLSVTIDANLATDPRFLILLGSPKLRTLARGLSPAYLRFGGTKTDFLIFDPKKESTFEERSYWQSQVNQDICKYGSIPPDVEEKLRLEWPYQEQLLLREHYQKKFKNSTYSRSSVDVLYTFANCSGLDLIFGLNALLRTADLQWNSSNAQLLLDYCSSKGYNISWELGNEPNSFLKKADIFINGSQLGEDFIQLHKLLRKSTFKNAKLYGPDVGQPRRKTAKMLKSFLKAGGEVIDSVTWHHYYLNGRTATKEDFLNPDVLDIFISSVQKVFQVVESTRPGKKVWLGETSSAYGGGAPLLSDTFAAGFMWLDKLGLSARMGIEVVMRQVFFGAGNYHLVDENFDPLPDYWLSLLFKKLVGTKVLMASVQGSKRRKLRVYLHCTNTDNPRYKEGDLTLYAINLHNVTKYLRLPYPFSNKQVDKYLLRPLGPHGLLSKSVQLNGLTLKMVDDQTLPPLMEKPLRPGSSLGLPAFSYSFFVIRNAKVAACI
Description: Inhibition of HPSE1 (unknown origin).

Consider `CO[C@H]1[C@H](O)[C@@H](O)c2nc(CCc3cccc(Oc4ccccc4)c3)cn2[C@@H]1C(=O)O`, for which inhibition in test [1] was half-maximal at 439 nM (IC50).

Consider `O=C(O)[C@@H]1[C@@H](OCCc2ccccc2)[C@H](O)[C@@H](O)c2nc(CCc3cccc(Oc4ccccc4)c3)cn21`, for which the figures for the 50% inhibitory concentration (IC50) (in test [1]; on Beta-glucuronidase; against Heparanase) were 1250 nM, 7210 nM and 57 nM, respectively.

On to `CC(C)O[C@H]1[C@H](O)[C@@H](O)c2nc(CCc3cccc(Oc4ccccc4)c3)cn2[C@@H]1C(=O)O`, for which the IC50 – broadly, the concentration that gives 50% inhibition – in test [1] worked out at 38600 nM; on Beta-glucuronidase, 41800 nM; against Heparanase it was 621 nM.
